Measured values as given in patent publication US10722501B2 (BAYER AKTIENGESELLSCHAFT, priority 2016, dated 2020).

target: T1, recombinant full-length human prolyl endopeptidase (PREP) (Homo sapiens, UniProt P48147); test: Biochemical human prolyl endopeptidase (PREP) assay with fluorescently labelled substrate; settings: substrate Z-Gly-Pro-AMC 50 μM, 32° C., 60 min; some as mean values from multiple independent determinations
T1 construct: To recombinant full-length human prolyl endopeptidase (PREP, R&D-Systems, 4308-SE); purchased R&D-Systems 4308-SE
T1 sequence (P48147 1-710): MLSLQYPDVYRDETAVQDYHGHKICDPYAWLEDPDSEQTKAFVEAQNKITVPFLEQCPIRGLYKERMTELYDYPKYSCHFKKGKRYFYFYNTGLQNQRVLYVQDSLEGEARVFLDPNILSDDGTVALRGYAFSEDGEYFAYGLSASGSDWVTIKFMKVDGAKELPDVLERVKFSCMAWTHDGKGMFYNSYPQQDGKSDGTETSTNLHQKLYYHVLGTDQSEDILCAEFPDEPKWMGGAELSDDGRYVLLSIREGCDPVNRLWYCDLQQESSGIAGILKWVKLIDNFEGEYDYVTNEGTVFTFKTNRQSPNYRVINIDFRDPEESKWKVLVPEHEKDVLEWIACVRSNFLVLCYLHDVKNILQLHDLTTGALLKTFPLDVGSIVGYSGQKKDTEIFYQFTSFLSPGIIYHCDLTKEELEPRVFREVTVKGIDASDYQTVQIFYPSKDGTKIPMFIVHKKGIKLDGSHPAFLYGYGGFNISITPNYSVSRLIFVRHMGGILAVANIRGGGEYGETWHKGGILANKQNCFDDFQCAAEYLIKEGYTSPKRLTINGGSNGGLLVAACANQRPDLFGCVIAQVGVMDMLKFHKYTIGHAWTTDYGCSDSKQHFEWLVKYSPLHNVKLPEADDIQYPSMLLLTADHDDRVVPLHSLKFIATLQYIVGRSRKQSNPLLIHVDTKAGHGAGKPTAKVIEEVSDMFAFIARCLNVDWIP
In short: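 Initial rates of fluorescence increase from 50 μM Z-Gly-Pro-AMC cleavage (ex 360/em 465 nm, 60 min, 32° C) give percent PREP activity versus no-compound control, and IC50 is interpolated. Enzyme used at 0.4 nM (final, example) in Tris pH 7.5 with EDTA, GSH, BSA and Brij-35; compounds span 1 nM to 30 μM.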

Row | Structure (SMILES) | IC50 [nM]
1 | O=C(C1CCCc2nn(Cc3cc(F)c(F)cc3F)c(=O)n21)N1CCC(F)(F)C1 (racemic) [Example 91, (5RS)-5-[(3,3-Difluoropyrrolidin-1-yl)carbonyl]-2-(2,4,5-trifluorobenzyl)-5,6,7,8-tetrahydro[1,2,4]triazolo[4,3-a]pyridin-3(2H)-one] | 2.3
2 | O=C([C@@H]1CCC(F)(F)c2nn(Cc3ncc(Cl)cc3F)c(=O)n21)N1CC[C@H](F)C1 [Example 556, (5S)-2-[(5-chloro-3-fluoropyridin-2-yl)methyl]-8,8-difluoro-5-{[(3S)-3-fluoropyrrolidin-1-yl]carbonyl}-5,6,7,8-tetrahydro[1,2,4]triazolo[4,3-a]pyridin-3(2H)-one] | 0.63
3 | O=C([C@@H]1CCCc2nn(Cc3cc(C(F)(F)F)c(Cl)cn3)c(=O)n21)N1CC(O)C1 [Example 373, (5S)-2-{[5-Chloro-4-(trifluoromethyl)pyridin-2-yl]methyl}-5-[(3-hydroxyazetidin-1-yl)carbonyl]-5,6,7,8-tetrahydro[1,2,4]triazolo[4,3-a]pyridin-3(2H)-one] | 135
4 | O=C(C1CC(C(F)(F)F)Cc2nn(Cc3ccc(Cl)nc3)c(=O)n21)N1CCC(F)(F)C1 (single isomer, unassigned) [Example 232, (5RS,7RS)-2-[(6-Chloropyridin-3-yl)methyl]-5-[(3,3-difluoropyrrolidin-1-yl)carbonyl]-7-(trifluoromethyl)-5,6,7,8-tetrahydro[1,2,4]triazolo[4,3-a]pyridin-3(2H)-one] | 400
5 | O=C([C@@H]1CCCc2nn(Cc3ncc(Cl)cc3F)c(=O)n21)N1CCSC1 [Example 507, (5S)-2-[(5-Chloro-3-fluoropyridin-2-yl)methyl]-5-(1,3-thiazolidin-3-ylcarbonyl)-5,6,7,8-tetrahydro[1,2,4]triazolo[4,3-a]pyridin-3(2H)-one] | 0.94
6 | Cc1cc(Cn2nc3n(c2=O)C(C(=O)N2CC[C@H](F)C2)CCC3)on1 (mixture of isomers) [Example 416, (5RS)-5-{[(3S)-3-Fluoropyrrolidin-1-yl]carbonyl}-2-[(3-methyl-1,2-oxazol-5-yl)methyl]-5,6,7,8-tetrahydro[1,2,4]triazolo[4,3-a]pyridin-3(2H)-one] | 3.4
7 | O=C(C1C(C(F)(F)F)CCc2nn(Cc3ncc(Cl)cc3F)c(=O)n21)N1C[C@@H](F)[C@@H](F)C1 (single isomer, unassigned) [Example 292] | 37
8 | O=C([C@@H]1CCCc2nn(Cc3ncccc3Cl)c(=O)n21)N1CC(F)C1 [Example 396, (5S)-2-[(3-Chloropyridin-2-yl)methyl]-5-[(3-fluoroazetidin-1-yl)carbonyl]-5,6,7,8-tetrahydro[1,2,4]triazolo[4,3-a]pyridin-3(2H)-one] | 6
9 | O=C([C@@H]1CCCc2nn(Cc3ccc(Br)cn3)c(=O)n21)N1C[C@@H](F)[C@@H](F)C1 [Example 504, (5S)-2-[(5-Bromopyridin-2-yl)methyl]-5-{[(3R,4S)-3,4-difluoropyrrolidin-1-yl]carbonyl}-5,6,7,8-tetrahydro[1,2,4]triazolo[4,3-a]pyridin-3(2H)-one] | 1.8
10 | O=C([C@@H]1CCCc2nn(Cc3ccc(Cl)nc3)c(=O)n21)N1CC(F)C(F)C1 (single isomer, unassigned) [Example 551] | 480
11 | Cc1[nH]cnc1Cn1nc2n(c1=O)C(C(=O)N1CCCC1)CCC2 (racemic) [Example 24, (5RS)-2-[(5-Methyl-1H-imidazol-4-yl)methyl]-5-(pyrrolidin-1-ylcarbonyl)-5,6,7,8-tetrahydro[1,2,4]triazolo[4,3-a]pyridin-3(2H)-one] | 4.9
12 | O=C(C1C(C(F)(F)F)CCc2nn(Cc3ncc(Cl)cc3F)c(=O)n21)N1CCC(F)(F)C1 (single isomer, unassigned) [Example 297, (5RS,6RS)-2-[(5-Chloro-3-fluoropyridin-2-yl)methyl]-5-[(3,3-difluoropyrrolidin-1-yl)carbonyl]-6-(trifluoromethyl)-5,6,7,8-tetrahydro[1,2,4]triazolo[4,3-a]pyridin-3(2H)-one] | 115
13 | O=C(C1CCCc2nn(Cc3cccc(F)c3)c(=O)n21)N1CCC(F)(F)C1 (racemic) [Example 56, (5RS)-5-[(3,3-Difluoropyrrolidin-1-yl)carbonyl]-2-(3-fluorobenzyl)-5,6,7,8-tetrahydro[1,2,4]triazolo[4,3-a]pyridin-3(2H)-one] | 5.6
14 | O=C([C@@H]1CCCc2nn(Cc3ccc(F)c(C(F)(F)F)c3)c(=O)n21)N1CC[C@H](F)C1 [Example 448, (5S)-5-{[(3S)-3-Fluoropyrrolidin-1-yl]carbonyl}-2-[4-fluoro-3-(trifluoromethyl)benzyl]-5,6,7,8-tetrahydro[1,2,4]triazolo[4,3-a]pyridin-3(2H)-one] | 0.615
15 | O=C(C1CC(C(F)(F)F)Cc2nn(Cc3ccnc(C(F)(F)F)c3F)c(=O)n21)N1C[C@@H](F)[C@@H](F)C1 (single isomer, unassigned) [Example 262] | 790
16 | COc1ccc(Cn2nc3n(c2=O)[C@H](C(=O)N2CC(F)C2)CCC3)nc1 [Example 382, (5S)-5-[(3-Fluoroazetidin-1-yl)carbonyl]-2-[(5-methoxypyridin-2-yl)methyl]-5,6,7,8-tetrahydro[1,2,4]triazolo[4,3-a]pyridin-3(2H)-one] | 5.9
17 | O=C([C@@H]1CCCc2nn(Cc3ccc(Br)cc3)c(=O)n21)N1CC[C@H](F)C1 [Example 212, (5S)-2-(4-Bromobenzyl)-5-{[(3S)-3-fluoropyrrolidin-1-yl]carbonyl}-5,6,7,8-tetrahydro[1,2,4]triazolo[4,3-a]pyridin-3(2H)-one] | 0.041
18 | O=C([C@@H]1CCCc2nn(Cc3ncc(Cl)cc3Cl)c(=O)n21)N1C[C@@H](F)[C@@H](F)C1 [Example 400, (5S)-2-[(3,5-Dichloropyridin-2-yl)methyl]-5-{[(3R,4S)-3,4-difluoropyrrolidin-1-yl]carbonyl}-5,6,7,8-tetrahydro[1,2,4]triazolo[4,3-a]pyridin-3(2H)-one] | 0.455
19 | CSc1ccc(Cn2nc3n(c2=O)C(C(=O)N2CCCC2)CCC3)cc1 (racemic) [Example 30, (5RS)-2-[4-(Methylsulphanyl)benzyl]-5-(pyrrolidin-1-ylcarbonyl)-5,6,7,8-tetrahydro[1,2,4]triazolo[4,3-a]pyridin-3(2H)-one] | 1.6
20 | O=C(C1CCc2nn(Cc3ccc(F)c(Cl)c3)c(=O)n21)N1C[C@@H](F)[C@@H](F)C1 (mixture of isomers) [Example 174, (5RS)-2-(3-Chloro-4-fluorobenzyl)-5-{[(3R,4S)-3,4-difluoropyrrolidin-1-yl)carbonyl]-2,5,6,7-tetrahydro-3H-pyrrolo[2,1-c][1,2,4]triazol-3-one] | 1.15
21 | O=C(C1CCCc2nn(Cc3ccc(Cl)s3)c(=O)n21)N1CCC(F)(F)C1 (racemic) [Example 54, (5RS)-2-[(5-Chloro-2-thienyl)methyl]-5-[(3,3-difluoropyrrolidin-1-yl)carbonyl]-5,6,7,8-tetrahydro[1,2,4]triazolo[4,3-a]pyridin-3(2H)-one] | 1.3
22 | CCn1nc(C(F)(F)F)cc1Cn1nc2n(c1=O)[C@H](C(=O)N1CC[C@H](F)C1)CCC2 [Example 360, (5S)-2-{[1-Ethyl-3-(trifluoromethyl)-1H-pyrazol-5-yl]methyl}-5-{[(3S)-3-fluoropyrrolidin-1-yl]carbonyl}-5,6,7,8-tetrahydro[1,2,4]triazolo[4,3-a]pyridin-3(2H)-one] | 0.81
